Reference: PubChem BioAssay AID504745 (National Center for Advancing Translational Sciences (NCATS), 2011)

Test system: Caco-2 bidirectional permeability, efflux ratio, LC-MS/MS
Test: Inhibitors of N370S glucocerebrosidase as a Potential Chaperone Treatment of Gaucher Disease: Efflux Ratio Profiling
Settings: active compounds read low
Source text: Glucocerebrosidase (GC) catalyzes the hydrolysis of beta-glucocerebroside to glucose and ceramide in lysosomes. Mutations in the glucocerebrosidase gene result in Gaucher disease, an autosomal recessive lysosomal storage disorder. Many of the mutations encountered in patients with Gaucher disease are missense alterations that may cause misfolding, decreased stability and/or mistrafficking of this lysosomal protein. […] These inhibitors include iminosugar analogs and three non-iminosugar inhibitors identified from a previous HTS of 62,000 compounds with the wild type recombinant enzyme. After further testing a probe has been identified and was characterized though AMDE tests. This bioassays provides profiling data on Caco-2 cell permeability of leads compounds developed for the HPGD project. This in vitro model is often predictive of in vivo efflux of the compound by measuring the ratio of transport in and out the plasma membrane of the Caco2-cell line. NIH Chemical Genomics Center [NCGC] NIH Molecular Libraries Probe Production Centers Network [MLPCN] MLPCN Grant: MH086442-01 Assay Submitter (PI): Wei Zheng
1. […] The T0, LY and T90, LY plates are read by FlexStation 3 at excitation of 485 nm and emission of 535 nm to determine LY permeability. […]

efflux ratio: 9.9
Structure (SMILES): S=C(NCCCc1cnc[nH]1)NCCCN(Cc1ccc(Cl)c(Cl)c1)c1ccc(Br)cn1
